Data reported in patent publication US8519154B2, “Method for treatment of bronchial asthma” (Council of Scientific & Industrial Research, priority 2011, dated 2013).

Experiments:
[1] = test system: BALB/c mice sensitized and challenged with ovalbumin (OVA); test: Airway responsiveness to methacholine in mouse model of asthma; assay type: in vivo
Experimental: Present invention describes the efficacy of compound I in vivo mouse model of asthma. BALB/c mice were sensitized and challenged with ovalbumin (OVA) as shown in scheme 2 to develop asthmatic features such as airway hyperreactivity (AHR) to methacholine (MCh).
Mice were sensitized with 0.2 ml PBS containing 50 μg ovalbumin (OVA) (Sigma, USA) and 4 mg aluminum hydroxide in saline intraperitonially (i.p.) on days 0, 7 and 14 as shown in scheme 2. Sham group mice were sensitized with only alum dissolved in PBS. From day 21 to 30, mice were exposed to aerosol of OVA (3%) inhalation 25 minutes daily in a Plexiglas chamber (20×20×10 cm^3). The aerosol was generated by a nebulizer (OMRON CX, model) with an airflow rate of 9 L/minute. Sham group mice were challenged with PBS alone. […]
Airway responsiveness was measured by barometric plethysmography using whole-body plethysmography (WBP; Buxco, Troy, N.Y.) 12 hours after last saline or ovalbumin challenge. […] Enhanced pause (Penh) to methacholine as measured using barometric plethysmography is a valid indicator of bronchoconstriction in mice and can be used to measure AHR. […] Readings were taken and averaged for 5 minutes from the starting time of nebulisation. Airway responsiveness to MCh was evaluated by the concentration of MCh required to increase the Pen H to twice the baseline value (MCh PC200).

[2] = 28 d sub-acute oral toxicity (OECD TG 407); assay type: in vivo, mice; settings: both sexes, Balb/c, mouse, in vivo; mice, 28 d oral
Experimental: (§1) The study was performed according to the guidelines laid in OECD TG 407. Young healthy adult mice (Balb/c) weighing between 28 to 35 g were employed and randomly assigned to the control and treatment groups and kept in their cages for at least five days prior to the start of the treatment to allow for acclimatisation to the laboratory conditions. 10 animals (five female and five male) were used at each dose level. Local standards of laboratory animal care were maintained. The temperature in the experimental animal room was maintained at 24° C.±3° C. and the relative humidity between 40 to 60% with 12 hours artificial light and 12 hours dark photoperiod. For feeding, conventional sterile pellet diets (Nay Chetan) with an unlimited supply of RO drinking water was given. A sample of the diet was retained until finalisation of the report. Animals were housed in small groups of 5 of the same sex.
(§2) Blunt ended canula was used for gavaging. During the period of administration of Compound I, the animals are observed closely (30 minutes cage side observation), each day for signs of toxicity till the day of sacrifice. Weights of animals and measurements of food consumption were made once in a week.
(§3) Experimental animals were sacrificed on day 29. Before sacrifice, blood was drawn from the retro-orbital sinus of mice with the help of heparinised capillary tubes and split in to two parts. Part taken in tubes containing EDTA was used for hematological studies with the help of Automatic Hematology Analyzer (Medonic). The other part was allowed to clot for 2 h and serum separated by centrifugation at 3000 rpm for 5 min, and subsequently used for clinical biochemistry and immunoglobuling profiling. Post sacrifice, the individual organs were dissected out, weighed and percentage relative organ weights determined. Spleen, lymphnode and bone marrow cell viability were judged by trypan blue dye exclusion test.
(§4) The blood left after the hematological studies were allowed to clot for 2 h and serum separated by centrifugation at 3000 rpm for 5 min and subsequently used for clinical biochemistry. Details of the clinical biochemistry are given below in table II.
(§5) Serum concentrations of total IgG and IgM were measured by ELISA and Cell mediated immunity was measured in terms of % increase in paw volume in mice sensitized with SRBC.
(§6) Histopathology was carried out on vital organs by fixing organs in 10% buffered formalin saline for 72 h followed by washing, dehydrating and embedding on paraffin wax. Paraffin blocks were sectioned (4-5μ tick), deparaffinised and stained with hematoxylin and eosin for viewing and photography under microscope (Nikion, Japan). Histopathology was performed in the control and high dose groups unless mentioned otherwise.

mice (Balb/c) = test: 28 d sub-acute oral toxicity (OECD TG 407); assay type: in vivo; settings: for Protein: normal 6-9; for SGOT: normal 19@25° C.; for Glucose: normal 55-130; for Bilirubin: normal <1.1; for SGPT: normal <22 @25° C.; for CMI DTH (% increase in paw vol): SRBC sensitized; for Total Ig IgG / Total Ig IgM: serum, ELISA; for % viability BM / % viability LN / % viability Spleen: trypan blue
Experimental: as §1, §2, §3, §4, §5, §6

Compound: COc1cc(C=O)cc2c1[nH]c1ccccc12 [Compound I, 1-methoxy-3-formyl-9H carbazole]
- MChPC200 (airway hyper-responsiveness) ([1]; 0.1, 1 and 10 mg/kg orally twice per day): significantly attenuated the decrease in MChPC200
- dose with maximum effect on MChPC200 ([1]; orally twice per day): 10 mg/kg
- NOAEL at 28 days [2]: 93 mg/kg
- HGB (mice (Balb/c); 42 mg/kg, 28 d oral): 9.47 ± 1.7 g/dL
- PLT (mice (Balb/c); 42 mg/kg, 28 d oral): 439 ± 76 × 10^3/mm^3
- RBC (mice (Balb/c); 42 mg/kg, 28 d oral): 7.29 ± 1.46 ×10^6/mm^3
- WBC (mice (Balb/c); 42 mg/kg, 28 d oral): 6.7 ± 1.2 10^3/mm^3
- Protein (mice (Balb/c); 42 mg/kg, 28 d oral): 7.93 ± 1.33 g/dL
- SGOT (mice (Balb/c); 42 mg/kg, 28 d oral): 15.51 ± 3.6 U/L
- Glucose (mice (Balb/c); 42 mg/kg, 28 d oral): 127 ± 17 mg/dL
- Bilirubin (mice (Balb/c); 42 mg/kg, 28 d oral): 0.74 ± 0.08 mg/dL
- SGPT (mice (Balb/c); 42 mg/kg, 28 d oral): 18.54 ± 2.1 U/L
- CMI DTH (% increase in paw vol) (mice (Balb/c); 47 mg/kg, 28 d oral): 17.23 ± 4.4 % increase in paw vol
- Total Ig IgG (mice (Balb/c); 47 mg/kg, 28 d oral): 3.1 ± 0.85 mg/mL
- Total Ig IgM (mice (Balb/c); 47 mg/kg, 28 d oral): 1.48 ± 0.12
- % viability BM (mice (Balb/c); 47 mg/kg, 28 d oral): 97.3 ± 3.5%
- % viability LN (mice (Balb/c); 47 mg/kg, 28 d oral): 95.9 ± 5.4%
- % viability Spleen (mice (Balb/c); 47 mg/kg, 28 d oral): 96.8 ± 4.8%
- glucose vs normal range (mice (Balb/c); 93 mg/kg): marginally higher than the normal range
- symptoms of toxicity (mice (Balb/c); 93 mg/kg body weight): no symptoms of toxicity
- HGB (mice (Balb/c); 93 mg/kg, 28 d oral): 12.8 ± 2.4 g/dL
- PLT (mice (Balb/c); 93 mg/kg, 28 d oral): 426 ± 43 × 10^3/mm^3
- RBC (mice (Balb/c); 93 mg/kg, 28 d oral): 8.52 ± 1.4 ×10^6/mm^3
- WBC (mice (Balb/c); 93 mg/kg, 28 d oral): 5.9 ± 1.4 10^3/mm^3
- CMI DTH (% increase in paw vol) (mice (Balb/c); 93 mg/kg, 28 d oral): 19.2 ± 6.3 % increase in paw vol
- Protein (mice (Balb/c); 93 mg/kg, 28 d oral): 8.73 ± 2.8 g/dL
- SGOT (mice (Balb/c); 93 mg/kg, 28 d oral): 12.9 ± 1.92 U/L
- Glucose (mice (Balb/c); 93 mg/kg, 28 d oral): 133 ± 13 mg/dL
- Bilirubin (mice (Balb/c); 93 mg/kg, 28 d oral): 0.17 ± 0.068 mg/dL
- SGPT (mice (Balb/c); 93 mg/kg, 28 d oral): 10.2 ± 2.9 U/L
- Total Ig IgG (mice (Balb/c); 93 mg/kg, 28 d oral): 3.6 ± 1.26 mg/mL
- Total Ig IgM (mice (Balb/c); 93 mg/kg, 28 d oral): 1.12 ± 0.33
- % viability BM (mice (Balb/c); 93 mg/kg, 28 d oral): 96.8 ± 4.6%
- % viability LN (mice (Balb/c); 93 mg/kg, 28 d oral): 96.5 ± 4.6%
- % viability Spleen (mice (Balb/c); 93 mg/kg, 28 d oral): 95.4 ± 5.3%
- SGOT vs normal range (mice (Balb/c); 187 mg/kg): marginally higher than the normal range
- glucose level vs normal range (mice (Balb/c); 187 mg/kg): much higher than the normal range
- kidney histopathology (mice (Balb/c); 187 mg/kg): sign of necrosis in the corticular region
- signs of toxicity (mice (Balb/c); 187 mg/kg): Few signs of toxicity
- HGB (mice (Balb/c); 187 mg/kg, 28 d oral): 13.2 ± 1.8 g/dL
- PLT (mice (Balb/c); 187 mg/kg, 28 d oral): 472 ± 65 × 10^3/mm^3
- RBC (mice (Balb/c); 187 mg/kg, 28 d oral): 8.6 ± 0.67 ×10^6/mm^3
- WBC (mice (Balb/c); 187 mg/kg, 28 d oral): 5.9 ± 4.1 10^3/mm^3
- CMI DTH (% increase in paw vol) (mice (Balb/c); 187 mg/kg, 28 d oral): 17.4 ± 6.6 % increase in paw vol
- Protein (mice (Balb/c); 187 mg/kg, 28 d oral): 7.27 ± 0.85 g/dL
- SGOT (mice (Balb/c); 187 mg/kg, 28 d oral): 20.2 ± 0.85 U/L
- Glucose (mice (Balb/c); 187 mg/kg, 28 d oral): 183 ± 20 mg/dL
- Bilirubin (mice (Balb/c); 187 mg/kg, 28 d oral): 0.91 ± 0.057 mg/dL
- SGPT (mice (Balb/c); 187 mg/kg, 28 d oral): 15.83 ± 2.32 U/L
- Total Ig IgG (mice (Balb/c); 187 mg/kg, 28 d oral): 2.9 ± 0.56 mg/mL
- Total Ig IgM (mice (Balb/c); 187 mg/kg, 28 d oral): 1.04 ± 0.34
- % viability BM (mice (Balb/c); 187 mg/kg, 28 d oral): 94.67 ± 4.9%
- % viability LN (mice (Balb/c); 187 mg/kg, 28 d oral): 97.4 ± 3.9%
- % viability Spleen (mice (Balb/c); 187 mg/kg, 28 d oral): 98.4 ± 4.4%
- DTH response vs sham treated control (mice (Balb/c); SRBC sensitized mice): insignificant changes
- acute oral LOAEL (mice (Balb/c); mice, 28 d oral): 187 mg/kg
- viability of bone marrow cells, splenocyte and lymph node lymphocyte vs sham control (mice (Balb/c); trypan blue dye exclusion test): No significant changes
